# Like-named read-outs stand apart in the source and are kept apart here.
# Assays:
# M. chelonae = test: MIC measurement, M. chelonae; assay type: cell-based; settings: Mycobacteroides chelonae; clinical isolate; read-out: Minimum inhibitory concentration (MIC) M. chelonae
# M. fortuitum = test: MIC measurement, M. fortuitum; assay type: cell-based; settings: Mycolicibacterium fortuitum; clinical isolate; read-out: Minimum inhibitory concentration (MIC) M. fortuitum
# M. tuberculosis H37Rv = test: MIC measurement, M. tuberculosis; assay type: cell-based; settings: Mycobacterium tuberculosis, 336 h, 7H9 base with DPPC, 2 weeks, 37°C, read-out: Minimum inhibitory concentration (MIC) M. tuberculosis
# M. terrae = test: MIC measurement, M. terrae; assay type: cell-based; settings: Mycolicibacter terrae; clinical isolate; read-out: Minimum inhibitory concentration (MIC) M. terrae
# M. tuberculosis TrmD = M. tuberculosis TrmD (Mycobacterium tuberculosis, UniProt P9WFY7); test: Isothermal titration calorimetry (ITC) with M. tuberculosis TrmD; assay type: binding
# Method: ITC experiments to quantify binding of ligands to TrmD were done as described in ([37]) using Malvern MicroCal iTC200 or Auto-iTC200 systems at 25°C. Titrations consisted of an initial injection (0.2 μl), discarded during data processing, followed by either 19 (2 μl) or 39 (1 μl) injections separated by intervals of 60–150 s duration. Protein was dialysed overnight at 4°C in storage buffer (M. abscessus TrmD: 50 mM HEPES pH 7.5, 500 mM NaCl, 5% glycerol; M. tuberculosis TrmD: 25 mM HEPES pH 7.5, 500 mM NaCl). Sample cell and syringe solutions were prepared using the same storage buffer, with a final DMSO concentration of 2–10% according to ligand solubility in the buffer. TrmD concentrations of either 33 or 100 μM were used, with ligand to protein concentration ratios ranging from 10 to 20:1. Control titrations without protein were also performed and subtracted from ligand to protein titrations. Titrations were fitted with Origin software (OriginLab, Northampton, MA, USA), using a one-site binding model with N fixed to 1 only for weakly binding ligands. Titrations were typically performed once (n = 1), with multiple isotherms obtained (n > 1) for key compounds of interest. Kd values are reported to two significant figures. Error provided by Origin software due to model fit is reported when n = 1, whereas standard deviation is reported when n > 1.
# M. abscessus TrmD [1] = molecular target: T1, M. abscessus TrmD (Mycobacteroides abscessus, UniProt B1MDI3); test: TrmD methylation (methyltransferase) inhibition assay, UPLC readout; assay type: biochemical; settings: for IC50: 6.25 μM SAM, 0.1 μM TrmD, 6.25 μM tRNA ProUGG, 1 h room temperature
# Method: Assays for quantifying TrmD methylation reactions were carried out in 20 μl reactions consisting of 6.25 μM SAM, 0.1 μM TrmD and 6.25 μM tRNA^ProUGG in the presence of 0–500 μM compounds in serial dilutions using assay buffer containing 50 mM Tris–HCl pH 7.5, 10 mM MgCl2, 24 mM NH4Cl, 5% DMSO and 1 mM DTT in nuclease free water. tRNA sequences were identified from the M. abscessus genome sequence using tRNAscan-SE algorithm, ([38],[39]). […]. The reactions were carried out for 1 h at room temperature followed by addition of 20 mM EDTA to stop the reactions. Each of the 20 μl samples were diluted ten-fold with the UPLC mobile phase solvent A (0.1% formic acid in water), centrifuged for 10 min at 13 000 g, to remove any precipitates, and the supernatant was aliquoted into 96-well plates. 40 μl samples were then injected into Acquity UPLC (Waters) T3 […] column and eluted using a gradient elution consisting of Mobile Phase A: 0.1% formic acid in water and mobile phase B: 0.1% formic acid in 100% methanol for 4 min. The absorbance was monitored using a photodiode array (PDA) detector (Waters) at wavelength range of ƛ: 220–500 nm. All reactions were carried out in triplicate. The blank corrected data were analyzed using Microsoft excel and non-linear regression analysis for IC50 determination were done using GraphPad prism version 7.00, GraphPad Software, La Jolla, CA, USA.
# M. abscessus TrmD [2] = molecular target: T1, M. abscessus TrmD; test: biochemical; assay type: binding; settings: for LE (ligand efficiency): from M. abscessus TrmD Kd; for fold improvement in affinity (decrease in Kd) over the parent compound: AW3 vs AW2, AW4 vs AW3, AW5 vs AW4
# M. gordonae = test: MIC measurement, M. gordonae; assay type: cell-based; settings: Mycobacterium gordonae; clinical isolate; read-out: Minimum inhibitory concentration (MIC) M. gordonae
# [3] = tested on: M. abscessus-infected human macrophages; test: Macrophage infection study (CFU of intracellular M. abscessus); assay type: cell-based, Mycobacterium abscessus; settings: 25 μM compound, 48 h incubation
# Text: (§1) Blood samples were donated by healthy volunteers who had undertaken informed consent in accordance with local Research Ethics Committee approval. Peripheral blood mononuclear cells were isolated from citrated peripheral blood samples by density gradient separation using Lympholyte (Cedarlane Labs), and subsequent CD14^+ positive selection using the MACS Miltenyi Biotec Human CD14 microbead protocol (Miltenyi Biotec). CD14^+ cells were differentiated into macrophages using recombinant human granulocyte-macrophage colony-stimulating factor (200 ng/ml GM-CSF) and recombinant human interferon gamma (50 ng/ml IFNγ) (Peprotech) in standard tissue culture DMEM media containing fetal calf serum, penicillin and streptomycin. Following removal of antibiotics, macrophages were infected at a multiplicity of infection of 10:1 with M. abscessus 19977 for 2 h, washed in sterile phosphate buffered saline, and then incubated in DMEM media with FCS and 25 μM of compound for 24 and 48 h. At the given time points, supernatant was saved for cell cytotoxicity studies, and M. abscessus survival within the macrophages calculated by macrophage lysis in sterile water, and colony forming unit calculation on Columbia Blood Agar plates (VWR BDH).
# M. avium = test: MIC measurement, M. avium; assay type: cell-based; settings: Mycobacterium avium; clinical isolate; read-out: Minimum inhibitory concentration (MIC) M. avium
# M. abscessus = test: MIC measurement, M. abscessus; assay type: cell-based, Mycobacterium abscessus ssp. abscessus (ATCC 19977); settings: Mycobacteroides abscessus, ATCC19977; ATCC 19977, Middlebrook 7H9 ADC, 37°C; read-out: Minimum inhibitory concentration (MIC) M. abscessus
# human macrophages = test: LDH release cytotoxicity assay; assay type: cell-based; settings: at or below a concentration of 150 μM
# Text: as §1, with “Following removal of antibiotics, macrophages were infected at a multiplicity of infection of 10:1 with M. abscessus 19977 for 2 h, washed in sterile phosphate buffered saline, and then incubated in DMEM media with FCS and 25 μM of compound for 24 and 48 h.” left out
# Lactate dehydrogenase (LDH) was measured as a biomarker for cellular cytotoxicity using the Pierce LDH Cytotoxicity Assay Kit. Cell supernatant was measured at 2, 24 and 48 h post-infection according to the kit protocol.
# [4] = tested on: axenically-maintained M. leprae; test: M. leprae axenic culture, radiorespirometry; assay type: cell-based, Mycobacterium leprae; settings: 100-6.25 μM, 7 days, 33°C
# Method: Freshly harvested nude mouse foot pad derived M. leprae were suspended in modified 7H12 medium, AW7 was added at different concentrations (100–6.25 μM) and were incubated for 7 days at 33°C. Media only and rifampin (Sigma, USA) at 2.4 μM were used as negative and positive controls. Following incubation aliquots of AW7 treated and control M. leprae were processed for radiorespirometry (RR) as described previously ([43]).
# (§2) Metabolism of a suspension of M. leprae was measured by evaluating the oxidation of ^14C-palmitic acid to ^14CO2 by radiorespirometry as described previously ([45]). Levels of captured ^14CO2 is proportional to the rate of ^14C-palmitic acid oxidation and used as an indicator of M. leprae viability. In the present study the seventh day cumulative counts per minute (CPM) were recorded and percentage inhibition of metabolism determined as compared to no drug control. Statistical significance between treatment groups and no drug control were determined by Student's t-test and P < 0.05 is considered as significant.
# [5] = tested on: M. leprae maintained intracellularly in murine bone marrow macrophage; test: Intracellular M. leprae in murine bone marrow macrophages, radiorespirometry; assay type: cell-based; settings: Mycobacterium leprae, 168 h, AW7 at 6.2 μM, 7 days, read-out: inhibition of β-oxidation (14C-palmitic acid oxidation, radiorespirometry)
# Method: Bone marrow cells were obtained aseptically from both femurs of female BALB/c mice and cultured on plastic cover slips in Dulbecco modified Eagle's medium (DMEM, Life Technologies, USA) supplemented with 10% (v/v) fetal calf serum (Life Technologies), 25 mM/l HEPES (Sigma, USA), 2 mM/l glutamine (Sigma, USA), 50 μg/ml ampicillin (Sigma, USA) and 10 ng/ml of recombinant murine macrophages colony stimulating factor (R&D Systems, USA) for 6–7 days at 37°C and 5% CO2. The cells were infected with freshly harvested nude mice foot pad derived live M. leprae at a multiplicity of infection (MOI) of 20:1 overnight at 33°C and then washed to remove extracellular bacteria. AW7 was added at different concentrations (100–6.25 μM) and the cells were incubated for 7 days at 33°C. Media only and rifampicin at 2.4 μM were used as negative and positive controls. […]
# as §2, with “Levels of captured ^14CO2 is proportional to the rate of ^14C-palmitic acid oxidation and used as an indicator of M. leprae viability.” left out
# M. abscessus TrmD [6] = molecular target: T1, M. abscessus TrmD; test: CRISPR-dCas9 knockdown of trmD in M. abscessus (target engagement); settings: 25 μM AW7, doxycycline 1.5625-100 ng/ml, 72 h; effect not seen with yidC gRNA or empty vector
# Text: The dCas9 encoding plasmid (pTetInt-dcas9-Km) and the second vector containing the sgRNA cassette (pGRNAz) were derived from the tetracycline inducible CRISPr Interference system of Choudhary et al. ([40]) and optimized for M. abscessus ATCC19977. The 20 nucleotides guides targeting yidC(MAB_4953c) and trmD(MAB_3226c) were annealed and cloned in between sphI and aclI of the pGRNAz. As a control the pGRNAz was left empty. The CRISPr-I containing strains were cultivated in Middlebrook 7H9 broth supplemented with 1× ADC, 0.05% tween80 and 0.5% glycerol, hygromycin 1 mg/ml and zeocin 300 μg/ml. The cultures were inoculated at 10^6CFU/ml from an exponentially grown pre-cultures. […] The OD600 was measured and the CFU counted at 72 h.
# [7] = ITC, 25°C, M. abscessus TrmD, read-out: Kd
# T1 sequence (B1MDI3 entry or part of it): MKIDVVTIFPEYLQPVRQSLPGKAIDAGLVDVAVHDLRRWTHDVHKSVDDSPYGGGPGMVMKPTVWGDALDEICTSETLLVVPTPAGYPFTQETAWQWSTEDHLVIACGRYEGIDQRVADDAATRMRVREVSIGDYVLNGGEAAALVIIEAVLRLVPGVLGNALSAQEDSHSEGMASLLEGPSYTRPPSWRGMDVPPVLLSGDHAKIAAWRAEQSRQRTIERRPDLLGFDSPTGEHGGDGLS
# Sequence of M. tuberculosis TrmD (P9WFY7 whole entry): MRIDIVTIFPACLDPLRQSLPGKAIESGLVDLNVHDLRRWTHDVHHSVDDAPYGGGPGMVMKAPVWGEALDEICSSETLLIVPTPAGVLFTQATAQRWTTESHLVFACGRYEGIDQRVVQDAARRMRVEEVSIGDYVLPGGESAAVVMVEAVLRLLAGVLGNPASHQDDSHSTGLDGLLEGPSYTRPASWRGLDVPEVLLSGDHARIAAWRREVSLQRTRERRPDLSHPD
Structure (SMILES),MIC (M. tuberculosis H37Rv) [µM],IC50 (M. abscessus TrmD [1]) [nM],LE (ligand efficiency) (M. abscessus TrmD [2]) [kcal/ mol/ heavy atom],MIC (M. abscessus) [µM],Kd (M. abscessus TrmD [2]; [7]) [nM],fold improvement in affinity (decrease in Kd) over the parent compound (M. abscessus TrmD [2]) [fold],also measured
Nc1cc(-c2ccc3ccn(Cc4ccc(CN5CCCC5)cc4)c3c2)[nH]n1 [AW6],6.3,1400 ± 100,0.31,50,,,MIC (M. chelonae): 100 µM; MIC (M. fortuitum): 100 µM; MIC (M. terrae): 100 µM; Kd (M. tuberculosis TrmD): 900 nM; Kd (M. abscessus TrmD [2]): 490 ± 210 nM; MIC (M. gordonae): 100 µM; decrease in CFUs compared to the no drug control [3]: ~82%; MIC (M. avium): 200 µM; cellular toxicity (LDH release) (human macrophages): neither compound caused cellular toxicity
OB(O)c1ccc2cc[nH]c2c1 [Fragment 24],,,0.41,,260000,,
CN1CCN(Cc2ccc(Cn3ccc4ccc(-c5[nH]nc(N)c5C#N)cc43)cc2)CC1 [AW7],6.3,69 ± 7,0.30,50,,,inhibitory activity against axenic M. leprae (radiorespirometry) [4]: show inhibitory activity; inhibition at 6.2 µM [5]: > 50%; MIC (M. chelonae): 100 µM; MIC (M. fortuitum): 100 µM; MIC (M. terrae): 25 µM; Kd (M. tuberculosis TrmD): 330 nM; sensitivity of M. abscessus to the compound on incremental silencing of TrmD (M. abscessus TrmD [6]): progressively more sensitive to AW7; Kd (M. abscessus TrmD [2]): 73 ± 30 nM; MIC (M. gordonae): 100 µM; decrease in CFUs compared to the no drug control [3]: 95%; MIC (M. avium): 100 µM; cellular toxicity (LDH release) (human macrophages): neither compound caused cellular toxicity
N#Cc1c(N)n[nH]c1-c1ccc2ccn(Cc3ccc(CN4CCCC4)cn3)c2c1 [AW4],,,0.32,,92 ± 18,5,
Nc1cc(-c2ccc3ccn(Cc4ccccn4)c3c2)[nH]n1 [AW2],,33000 ± 4000,0.30,,12000 ± 1000,,
N#Cc1c(N)n[nH]c1-c1ccc2ccn(Cc3ccccn3)c2c1 [AW3],,310 ± 10,0.36,,500 ± 140,25,fold decrease in IC50 over the parent compound (M. abscessus TrmD [1]; AW3 vs AW2): 100 fold
COc1ccc(-c2cc(N)n[nH]2)cc1 [Fragment 23],,,0.37,,170000,,
Nc1cc(-c2ccc3cc[nH]c3c2)[nH]n1 [AW1],,230000 ± 29000,0.36,,110000 ± 11000,,
N#Cc1c(N)n[nH]c1-c1ccc2ccn(Cc3ccc(CN4CCCC4)cc3)c2c1 [AW5],12.5,30 ± 3,0.34,50,27 ± 4,> 3,
